The record followed here is ChEMBL document CHEMBL1201862, “PubChem BioAssay data set” (2004).

Among the test systems are 786-0; ACHN; CCRF-CEM; HCT-116; HT-29; LOX IMVI; M14; MDA-MB-231; MDA-N; Malme-3M; NCI-H23; NCI/ADR-RES; OVCAR-3; OVCAR-8; PC-3; RPMI-8226; SK-OV-3; SN12C; U-251; UACC-257.
Holding throughout (experiment): inhibition of tumour cell growth, NCI panel, 48 h

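These data come from cells grown in 96-well plates and exposed to compound for 48 hours at five concentrations. GI50 marks 50% less growth.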 Activity calls are given as the source filed them. Cut-off read from the data, not from the text of the source: active = GI50 up to about 1.1 µM and inactive = higher. A value given as a limit tells only on which side of the number the result lay.

On to `CC(=O)CCCCn1c(=O)c2c(nc(Br)n2C)n(C)c1=O`, for which the GI50 in the assay on 786-0, in the assay on ACHN, in the assay with CCRF-CEM, with HCT-116, in the assay with HT-29 and in the assay with LOX IMVI was > 100 µM (inactive) each time. In addition, the GI50 with M14, with MDA-MB-231, in the assay on MDA-N, in the assay with Malme-3M, in the assay on NCI-H23 and in the assay with NCI/ADR-RES was > 100 µM (inactive) throughout. Further, the GI50 with OVCAR-3, in the assay with OVCAR-8, with PC-3, in the assay on RPMI-8226, in the assay on SK-OV-3 and in the assay on SN12C was > 100 µM (inactive) each time. Besides, the GI50 in the assay with U-251 and in the assay on UACC-257 was > 100 µM (inactive) each time.

For `COC(=O)CCNC(=O)OCc1ccccc1`, the GI50 with 786-0, with ACHN, with CCRF-CEM, in the assay with HCT-116, with HT-29 and with LOX IMVI was > 100 µM (inactive) each time. Besides, the GI50 in the assay with M14, in the assay on MDA-MB-231, in the assay with MDA-N, with Malme-3M, in the assay on NCI-H23 and in the assay on NCI/ADR-RES was > 100 µM (inactive) in each case. The GI50 in the assay on OVCAR-3, with OVCAR-8, with PC-3, with RPMI-8226, with SK-OV-3 and in the assay with SN12C was > 100 µM (inactive) throughout. Also, the GI50 in the assay on U-251 and in the assay on UACC-257 was > 100 µM (inactive) throughout.

For the molecule `Nc1ncnc2c1ccn2C/C=C\CO`, the GI50 in the assay with 786-0, in the assay with ACHN, with CCRF-CEM, in the assay with HCT-116, in the assay on HT-29 and in the assay on LOX IMVI was > 100 µM (inactive) in each case. The GI50 with M14, in the assay with MDA-MB-231, with MDA-N, in the assay on Malme-3M, in the assay on NCI-H23 and with NCI/ADR-RES was > 100 µM (inactive) each time. The GI50 with OVCAR-3, with OVCAR-8, in the assay on PC-3, in the assay with RPMI-8226, with SK-OV-3 and with SN12C was > 100 µM (inactive) in each case. Moreover, the GI50 in the assay on U-251 and in the assay with UACC-257 was > 100 µM (inactive) throughout.

Consider `OC(c1cc(-c2ccccc2)nc2c1ccc1ccccc12)C1CCCCN1` (stereo not given), for which the GI50 is 1.64 µM (inactive) in the assay on 786-0; 1.83 µM (inactive) with ACHN; 0.0473 µM (active) in the assay on CCRF-CEM; 1.63 µM (inactive) in the assay with HCT-116; 1.68 µM (inactive) in the assay with HT-29; 1.11 µM (active) in the assay on LOX IMVI. Also, the GI50 with M14 is 1.73 µM (inactive); in the assay on MDA-MB-231, 1.79 µM (inactive); in the assay on MDA-N, 1.64 µM (inactive); with Malme-3M, 1.38 µM (inactive); in the assay with NCI-H23, 1.95 µM (inactive); with NCI/ADR-RES it was 2.1 µM (inactive). Further, the GI50 in the assay with OVCAR-3 was 1.84 µM (inactive); in the assay on OVCAR-8 it was 1.96 µM (inactive); with PC-3 it was 1.71 µM (inactive); in the assay on RPMI-8226, 1.12 µM (active); with SK-OV-3, 1.88 µM (inactive); in the assay on SN12C it was 1.62 µM (inactive). Also, the GI50 in the assay with U-251 was 1.76 µM (inactive); in the assay with UACC-257, 1.82 µM (inactive).

`Cc1ccc(S(=O)(=O)n2ccn3c(=O)cc(C)nc23)cc1`: the GI50 in the assay with 786-0, in the assay on ACHN, in the assay on CCRF-CEM, in the assay on HCT-116, in the assay on HT-29 and with LOX IMVI was > 10 µM (inactive) each time. Also, the GI50 in the assay with M14, in the assay with MDA-MB-231, in the assay on MDA-N, in the assay on Malme-3M, in the assay on NCI-H23 and with NCI/ADR-RES was > 10 µM (inactive) in each case. Besides, the GI50 in the assay on OVCAR-3, in the assay with OVCAR-8, in the assay with PC-3, in the assay with RPMI-8226, in the assay on SK-OV-3 and in the assay with SN12C was > 10 µM (inactive) throughout. Besides, the GI50 in the assay with U-251 and with UACC-257 was > 10 µM (inactive) each time.

On to `[N-]=[N+]=CC(=O)OCC1NC(=O)C(COC(=O)C=[N+]=[N-])NC1=O` (stereo not given), for which the GI50 with 786-0, with ACHN, in the assay with CCRF-CEM, with HCT-116, in the assay on HT-29 and with LOX IMVI was > 100 µM (inactive) in each case. In addition, the GI50 in the assay on M14, in the assay with MDA-MB-231, in the assay with MDA-N, in the assay on Malme-3M, in the assay with NCI-H23 and in the assay with NCI/ADR-RES was > 100 µM (inactive) in each case. In addition, the GI50 in the assay on OVCAR-3, in the assay on OVCAR-8, in the assay on PC-3, in the assay with RPMI-8226, in the assay with SK-OV-3 and in the assay on SN12C was > 100 µM (inactive) in each case. The GI50 with U-251 and with UACC-257 was > 100 µM (inactive) in each case.

Turning to `Nc1nc(Sc2ccc([N+](=O)[O-])c3nonc23)c2nc[nH]c2n1`, the GI50 is 0.489 µM (active) in the assay with 786-0; 2.22 µM (inactive) in the assay with ACHN; 0.191 µM (active) in the assay on CCRF-CEM; 0.622 µM (active) in the assay with HCT-116; 1.59 µM (inactive) with HT-29; 0.232 µM (active) in the assay on LOX IMVI. Further, the GI50 in the assay on M14 is 0.363 µM (active); in the assay on MDA-MB-231, 0.731 µM (active); in the assay on MDA-N it was 0.91 µM (active); with Malme-3M, 1.02 µM (active); in the assay on NCI-H23 it was 2.25 µM (inactive); with NCI/ADR-RES it was 0.495 µM (active). For the same molecule, the GI50 is 0.624 µM (active) in the assay with OVCAR-3; 0.721 µM (active) in the assay with OVCAR-8; 3.34 µM (inactive) in the assay with PC-3; 0.31 µM (active) in the assay on RPMI-8226; 0.425 µM (active) in the assay on SK-OV-3; 1.97 µM (inactive) in the assay on SN12C. Also, the GI50 in the assay with U-251 was 5.86 µM (inactive); with UACC-257, 2.13 µM (inactive).

For the molecule `C=CCN1C(=O)C=C(c2ccccc2)n2ncc3cccc1c32`, the GI50 was > 100 µM (inactive) in the assay with 786-0; > 100 µM (inactive) in the assay on ACHN; 67.9 µM (inactive) in the assay on CCRF-CEM; > 100 µM (inactive) with HCT-116; 69.2 µM (inactive) in the assay with HT-29; > 100 µM (inactive) in the assay with LOX IMVI. The GI50 in the assay with M14, in the assay with MDA-MB-231, with MDA-N, with Malme-3M, with NCI-H23 and in the assay on NCI/ADR-RES was > 100 µM (inactive) each time. Besides, the GI50 with OVCAR-3 was > 100 µM (inactive); in the assay with OVCAR-8 it was > 100 µM (inactive); in the assay on PC-3, > 100 µM (inactive); in the assay on RPMI-8226, 97.7 µM (inactive); with SK-OV-3, > 100 µM (inactive); in the assay on SN12C, > 100 µM (inactive). For the same molecule, the GI50 in the assay with U-251 and in the assay with UACC-257 was > 100 µM (inactive) in each case.
